Assay results from the NIST ThermoML archive (doi:10.1021/je800101v).

Assay: xn = mol fraction of the nth substance listed
Details: Ring tensiometer

CCCCCCCO [heptan-1-ol] + OCCO
surface tension liquid-gas [mN/m]
Details	298.15 K	303.15 K	308.15 K	313.15 K	318.15 K
x1 = 0.0559	29.24	29.16	28.96	28.78	28.64
x1 = 0.1059	27.73	28.02	27.88	27.71	27.55
x1 = 0.1508	27.18	27.66	27.55	27.42	27.28
x1 = 0.1914	27.05	27.54	27.21	27.06	26.91
x1 = 0.2512	26.93	27.36	26.98	26.81	26.67
x1 = 0.3027	26.78	27.2	26.84	26.71	26.57
x1 = 0.3559	26.67	27.07	26.69	26.53	26.35
x1 = 0.4085	26.57	26.89	26.65	26.42	26.28
x1 = 0.4532	26.41	26.77	26.57	26.32	26.16
x1 = 0.4966	26.32	26.67	26.42	26.23	26.07
x1 = 0.5502	26.25	26.6	26.24	26.07	25.91
x1 = 0.5999	26.17	26.48	26.12	25.92	25.78
x1 = 0.6369	26	26.39	26.09	25.83	25.65
x1 = 0.6928	26.08	26.31	26.01	25.68	25.52
x1 = 0.7246	26.01	26.25	25.91	25.62	25.48
x1 = 0.7978	25.92	26.18	25.85	25.52	25.37
x1 = 0.8403	25.83	26.12	25.78	25.51	25.31
x1 = 0.8875	25.71	26.07	25.68	25.45	25.21
x1 = 0.9404	25.62	26.02	25.62	25.45	25.14
